Results from patent publication US20010031268A1, “Antigen preparations” (priority 1999, published 2001).

What was measured:
E. coli = conditions: low inoculum levels (50-1000 bacterial cells/ml)
Neisseria = conditions: no catechol inducer
Neisseria meningitidis = test: SDS-PAGE protein analysis of bacteria grown with and without norepinephrine bitartrate; format: cell-based
Description: Samples of “test” bacteria grown as described above in MEM containing NEAA, iron chelator (ABS) and iron (Vitox) both in the presence and absence of norepinephrine bitartrate were taken. The samples were centrifuged to pellet bacteria. The bacterial pellets obtained were resuspended in 50 microliters of TE buffer (Sambrook et al: 1989, Molecular cloning: A Laboratory Manual, Cold Spring Harbour Laboratory Press, N.Y.) and 200 microliters of SDS-PAGE solubilisation buffer added (Sambrook et al: as above). The mixture was then heated at 70 deg C to solubilize proteins. Samples and appropriate molecular weight markers were then run on 10% and 12% SDS-polyacrylamide gels. The gels were then stained with Coomassie blue stain, according to a standard method, and protein bands observed.
Culture was carried out in MEM medium containing NEAA, iron (Vitox) and an iron chelator (ABS), either with norepinephrine bitartrate added to the culture (lane 1), or without norepinephrine bitartrate (lane 2). Molecular weight markers (kD) are also shown (lane M).

[1] = tested on: Neisseria meningitidis strain B16B6; test: Growth of Neisseria meningitidis culture (optical density at 600 nm) with and without norepinephrine bitartrate; format: cell-based; conditions: 100 micromolar added at 20 hours post-inoculation; MEM with NEAA, Vitox (iron) and ABS (iron chelator); OD 600 nm until 30 hours
Experimental: A culture of Neisseria meningitidis strain B16B6 (obtainable from the National Collection of Type Cultures, PHLS, Colindale, London, UK) was grown overnight at 37 deg C. on a GC agar plate (Oxoid) containing 2% Vitox (Oxoid). Vitox is a defined growth supplement suitable for enrichment of culture media and contains, amongst other ingredients, a source of iron.
At the end of incubation, about 20 bacterial colonies were harvested from the GC agar plate and suspended in 100 microliters of sterile phosphate-buffered saline (PBS; Gibco). The resulting bacterial suspension was then grown at 37 deg C for 4 hours on a GC agar plate containing 2% Vitox. At the end of incubation, the agar plate was flooded with 2 ml of sterile PBS and the bacterial suspension transferred into a sterile container. Optical density of the suspension was then determined at 600 nm. An optical density at 600 nm of 0.1 is equivalent to about 2×10^8 cfu/ml of Neisseria meningitidis. […]
The test medium was incubated at 37 deg C. with shaking at 180 rpm. The optical density of the culture was measured at 600 nm at 2, 4 and 20 hours post-inoculation of the media.
At 20 hours post-inoculation, the test sample was divided into halves. […] Both half-samples were then further incubated at 37 deg C., and optical density at 600 nm measured every 2 hours until 30 hours post-inoculation. […]

| Compound | growth of E. coli under low iron conditions and low inoculum levels (E. coli) | growth of Neisseria under low-iron conditions (Neisseria) | newly expressed or overexpressed further proteins (SDS-PAGE) (Neisseria meningitidis; compared with bacteria cultured without norepinephrine) | proteins expressed only when grown in the presence of the inducer (SDS-PAGE, Coomassie) (Neisseria meningitidis; compared with bacteria grown in the absence of norepinephrine bitartrate, MEM with NEAA, Vitox, ABS) | over-expression of protein in comparison to bacteria grown without the inducer (SDS-PAGE) (Neisseria meningitidis; compared with bacteria grown without norepinephrine bitartrate) | growth of a culture of Neisseria meningitidis [1] |
| --- | --- | --- | --- | --- | --- | --- |
| O=C(O)C(NCCNC(C(=O)O)c1ccccc1O)c1ccccc1O (stereo not drawn) [EDDA, ethylene diamine di-ortho-hydroxyphenyl-acetic acid] | nor to a lesser extent do they allow good growth | do not reliably allow good growth | – | – | – | – |
| NC[C@H](O)c1ccc(O)c(O)c1 [norepinephrine bitartrate] | – | – | newly expressed or overexpressed further proteins with molecular weights of about 250 kDa, about 80 kDa, and about 28 kDa | expressed proteins, including proteins with molecular weights of about 100 KDa and about 55 KDa | over-expression of an approximately 20 KDa protein | accelerated growth |
